From patent publication US20250152577A1, “Pharmaceutical Composition of Ethidium Bromide and Use in Treating Cancer” (RUIJIN HOSPITAL, SHANGHAI JIAOTONG UNIVERSITY SCHOOL OF …, priority 2022, published 2025)

What was measured:
[1] = tested on: MDA-231 Breast cancer; experiment: Median lethal dosage (IC50) against tumor cell lines; type: cell-based; conditions: Homo sapiens, MDA-MB-231; MDA-231 breast cancer tumor cells
[2] = tested on: 3T3-L1; experiment: Median lethal dosage (IC50) against normal cell lines; type: cell-based; conditions: Mus musculus; 3T3-L1 normal cells
[3] = tested on: tumor tissue blocks (PDX) from patients with colorectal cancer; experiment: Subcutaneous patient colorectal cancer graft (PDX) in nude mice; type: in vivo
[4] = tested on: GES1; experiment: Median lethal dosage (IC50) against normal cell lines; type: cell-based; conditions: Homo sapiens; GES1 normal cells
[5] = tested on: colorectal cancer cells RKO; experiment: Subcutaneous RKO solid tumor in nude mice, gavage administration; type: in vivo; conditions: gavage 20 mg/Kg
Description: We also tested the anti-tumor activity of ethidium bromide against subcutaneous solid tumors. 2×10^6 colorectal cancer cells RKO were injected subcutaneously. About 1 week later, when solid tumors grew subcutaneously in nude mice, gavage administration (20 mg/Kg) was started. The size of the tumors was measured twice a week.

[6] = tested on: PANC1 Pancreatic cancer; experiment: Median lethal dosage (IC50) against tumor cell lines; type: cell-based; conditions: Homo sapiens, PANC-1; PANC1 pancreatic cancer tumor cells
[7] = tested on: HepG2 Liver cancer; experiment: as above; type: cell-based; conditions: Homo sapiens; HepG2 liver cancer tumor cells
[8] = tested on: RKO Colorectal cancer; experiment: as above; type: cell-based; conditions: Homo sapiens; RKO colorectal cancer tumor cells
[9] = tested on: MEF; experiment: Median lethal dosage (IC50) against normal cell lines; type: cell-based; conditions: Mus musculus; MEF normal cells
[10] = tested on: B16 Melanoma; experiment: Median lethal dosage (IC50) against tumor cell lines; type: cell-based; conditions: Mus musculus; B16 melanoma tumor cells

CC[n+]1c(-c2ccccc2)c2cc(N)ccc2c2ccc(N)cc21 [ethidium bromide, Ethidium bromide]
IC50 [1]: 5.4 µM
IC50 [2]: 67.9 µM
subcutaneous tumor mass ([3]; 20 mg/Kg in PBS injected directly into the tumor, once a day, three injections): rapidly necrotic and eventually died and fell off
anti-tumor effect ([3]; intravenously administered): very limited
IC50 [4]: 64.7 µM
viability of nude mice [5]: contributed to improve the viability of nude mice
inhibitory effect on subcutaneous solid tumors ([5]; start about 1 week after cell injection): very unsatisfactory
IC50 [6]: 3.3 µM
IC50 [7]: 8.12 µM
IC50 [8]: 1.43 µM
IC50 [9]: 38.5 µM
IC50 [10]: 11.2 µM
